Data: US5645852A, “Butyric ester cyto-differtiating agents” (Sloan-Kettering Institute for Cancer Research, priority 1995, dated 1997)

How the values were obtained:
[1] = system: HT-29; settings: in vitro; cited from earlier work
[2] = system: HL-60; settings: in vitro; cited from earlier work
[3] = system: aberrant blood cells of sickle cell anemia; settings: in vitro; cited from earlier work
[4] = system: aberrant blood cells of thalassemia; settings: in vitro; cited from earlier work
[5] = design: species or system male Sprague Dawley rats; settings: rat, in vivo
Method: Three male Sprague Dawley rats (Harlan Sprague Dawley, Houston, Tex.) weighing approximately 306 g were fasted overnight and gavaged with 1 gm of tributyrin (Sigma catalog #T-5142, 99% pure, 302.4M) directly into the stomach. A fourth rat-was not gavaged. Rats were sacrificed at time zero (without gavage) or 0.5, 2 and 4 hours post gavage. At time of sacrifice, each rat was anesthetized with a mixture of ketamine (87 mg/kg) and rompun (13 mg/kg). A cardiac puncture was performed and approximately 2 mls of blood was withdrawn into a heparinized vacutainer tube. Blood was centrifuged at 2000×g for 7 minutes and plasma was withdrawn and stored frozen until analysis. At the time of analysis, plasma concentration was determined by the method of Remsey and Demigne (1974) using chromatographic methods as described by Boffa et al. (1992).
A single oral dose bolus of 1 gm of tributyrin was administered to rats, and the plasma levels of free butyrate measured over 4 hours.

[6] = system: chemically induced colon cancer; settings: 5% of the feed, mice; cited from earlier work
[7] = plasma, humans and rabbits; cited from earlier work
[8] = intravenous infusion, 500 mg/kg per day; cited from earlier work
[9] = system: leukemia; settings: intravenous infusion, 500 mg/kg per day; cited from earlier work
[10] = system: leukemia; settings: intravenous infusions 500 mg/kg body weight per day for several days, child with leukemia; cited from earlier work
[11] = system: thalassemia; settings: continuous intravenous infusions, 500 mg/kg/day or higher, several days; cited from earlier work
[12] = system: sickle cell; settings: continuous intravenous infusions, 500 mg/kg/day or higher, several days; cited from earlier work
[13] = continuous intravenous infusions, 500 mg/kg/day or higher, several days; cited from earlier work
[14] = system: 1,2-dimethylhydraxine-induced rat intestine neoplasia; settings: equivalent intake to tributyrin at 5% of feed; cited from earlier work
[15] = system: cancer or transformed cells lines; settings: combinations of sodium butyrate and active Vitamin D forms; cited from earlier work

Compound: CCCC(=O)O [butyrate, butyric acid]
- concentration at which butyrate has differentiation action [1]: 0.3 to 5 mM
- concentration at which butyrate has differentiation action [2]: 0.3 to 5 mM
- concentration giving desirable changes of aberrant blood cells [3]: about 0.05 mM
- concentration giving desirable changes of aberrant blood cells [4]: about 0.05 mM

Compound: CCCC(=O)OCC(COC(=O)CCC)OC(=O)CCC [tributyrin, glyceryl tributyrate]
- absorption of butyrate [5]: very rapidly absorbed
- return of plasma butyrate to baseline [5]: almost back to baseline at 4 hours
- half-life of butyrate ([5]; po): about 40 minutes
- peak level of butyrates ([5]; po): 0.35 mM
- time over 0.10 mM butyrate ([5]; po): about 2 hours
- prevention of chemically induced colon cancer [6]: ineffective
- promoting or cancer increasing effect [6]: did not produce the promoting or cancer increasing effect

Compound: CCCC(=O)[O-].[Na+] [sodium butyrate]
- half-life [7]: about 6 minutes
- metabolic half-life [8]: about 6 minutes
- clinical response [9]: no clinical response
- remission [10]: short-lived remission
- success in treating thalassemia patients [11]: success
- success in treating sickle cell patients [12]: success
- metabolism of butyrate [13]: apparently rapidly metabolized
- promoting or cancer increasing effect [14]: promoting or cancer increasing effect
- effect of combination with active Vitamin D forms on differentiation [15]: additive or synergistic effects
